One data set has as its system IL-1β mRNA. The experiment in a line: IL-1β mRNA level by RT-qPCR in hypoxic cardiomyocytes. It is filed as cell-based. The settings on record: hypoxic conditions. The procedure: Real-time RT-PCR experiments were performed in duplicates on an ABI 7900 instrument (Applied Biosystems™) using Taqman™ Master Mix (Applied Biosystems™). The average threshold cycles (Ct) of the duplicates were used to calculate the relative expression levels of the following genes: TLR4 (Applied Biosystems™ assay primer ID: Mm00569848_m1 Tlr4), TLR2 (assay primer ID: Mm01769726_m1 Tlr2), TNF-α (assay primer ID: Mm00443260_g1 Tnf) and IL-1β (assay primer ID: Mm00434228_m1 II1b) in vitro and in vivo following hypoxia or ischemia, respectively. The reference gene was TBP and the primer used was derived from mouse TATA-box binding protein (Applied Biosystems™ assay primer ID: Mm00446973_m1 Tbp). Amounts of TLR2, TLR4, TNF-α and IL-1β mRNAs in each sample were calculated relative to TBP mRNA, based on the corresponding Cts, as Relative Quantity (RQ) values, and normalized taking as 1 a randomly selected sample of the control group (TBP mRNA). […]
Decoy peptides represented by compounds PM1-PM10 were tested in vitro for their ability to decrease the level of CK and LDH released by stressed cardiomyocytes following exposure to LPS or hypoxic stimulation, and further evaluated for their ability to affect the level of IL-1β and TLR4 mRNA, and expression of IκB and TLR4 proteins, according to the protocols described in Materials and Methods and in Example 5 herein above.
In general terms: Quantitative PCR measures a nucleic acid by following its amplification.

A further data set concerns the target T1, TLR4 (Mus musculus, UniProt Q9QUK6).
T1 construct: endogenous in cells; host or cells: primary cardiomyocytes under hypoxia
T1 sequence (Q9QUK6 26-835): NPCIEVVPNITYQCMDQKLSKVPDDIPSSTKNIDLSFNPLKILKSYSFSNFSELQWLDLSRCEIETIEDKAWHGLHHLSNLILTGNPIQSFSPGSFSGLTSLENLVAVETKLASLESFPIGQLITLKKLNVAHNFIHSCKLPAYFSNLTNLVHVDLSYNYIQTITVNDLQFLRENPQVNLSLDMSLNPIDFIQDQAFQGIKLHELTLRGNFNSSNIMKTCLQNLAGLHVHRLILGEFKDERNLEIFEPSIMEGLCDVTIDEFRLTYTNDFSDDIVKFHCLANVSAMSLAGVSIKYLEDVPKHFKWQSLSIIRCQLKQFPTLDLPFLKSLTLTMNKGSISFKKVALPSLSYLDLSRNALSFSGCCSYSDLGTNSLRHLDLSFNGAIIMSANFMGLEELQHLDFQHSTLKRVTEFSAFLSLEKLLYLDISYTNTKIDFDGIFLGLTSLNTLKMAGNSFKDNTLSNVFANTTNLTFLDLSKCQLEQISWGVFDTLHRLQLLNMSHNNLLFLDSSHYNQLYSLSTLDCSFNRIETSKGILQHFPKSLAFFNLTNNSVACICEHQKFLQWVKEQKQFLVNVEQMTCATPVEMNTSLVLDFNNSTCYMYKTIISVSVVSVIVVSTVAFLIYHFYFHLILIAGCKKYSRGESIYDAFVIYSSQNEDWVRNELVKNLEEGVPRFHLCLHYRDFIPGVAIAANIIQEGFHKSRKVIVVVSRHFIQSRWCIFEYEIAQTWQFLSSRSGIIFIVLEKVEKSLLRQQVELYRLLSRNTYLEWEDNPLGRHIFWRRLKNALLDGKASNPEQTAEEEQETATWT
In words: TLR4 protein level by Western blot in hypoxic cardiomyocytes. Type of data set: cell-based. As to conditions: 20 μM, hypoxic conditions. On the procedure:
Frozen tissue/cell cultures of liver or heart were pulverized under liquid nitrogen and placed in a homogenization buffer ([…] phosphate buffer, […] sucrose, […] EDTA, […] phenylmethylsulfonyl fluoride (PMSF), and 0.1% vol/vol tergitol, pH 7.5). Myocytes from cell cultures were homogenized in lysis buffer.
Homogenates were centrifuged at 12K rpm for 10 minutes at 4° C., the supernatant was isolated, and protein levels were visualized by immunoblotting with antibodies. Briefly, proteins (60 μg/sample) were separated using SDS-PAGE gel (12%-15%) under denaturing conditions and electro-transferred (blotted) onto nitrocellulose (Bio-Rad) for 1 hour at 100 V. Membranes were blocked with 5% nonfat milk in Tris-buffered saline with 0.1% Tween® 20 (TBST) for 1 hour at room temperature. Primary antibodies were used at a 1:200-1:1000 concentration in TBST with 5% nonfat milk overnight at 4° C. Immunodetection of β-actin/GPDH was performed as an internal control. Dye 800/680 secondary antibodies were added at a concentration of 1:15000 for 1 hour at room temperature (LI-COR® Biosciences, NE, USA). Detection was carried out with LI-CORE® Odyssey® imaging system. Quantification of signals was carried out with the Odyssey® program. […]

Another data set has as its system C57BL mice. In words: Serum markers CK, LDH, troponin and GOT after LAD ligation. Type of data set: in vivo. The settings on record: 0.3 mg/kg IV one hour after ligation.
The test system of another data set is TLR2 mRNA. In words: TLR2 mRNA level by RT-qPCR in hypoxic cardiomyocytes (negative control). The settings on record: hypoxic conditions. It is filed as cell-based. The procedure:
Real-time RT-PCR experiments were performed in duplicates on an ABI 7900 instrument (Applied Biosystems™) using Taqman™ Master Mix (Applied Biosystems™). The average threshold cycles (Ct) of the duplicates were used to calculate the relative expression levels of the following genes: TLR4 (Applied Biosystems™ assay primer ID: Mm00569848_m1 Tlr4), TLR2 (assay primer ID: Mm01769726_m1 Tlr2), TNF-α (assay primer ID: Mm00443260_g1 Tnf) and IL-1β (assay primer ID: Mm00434228_m1 II1b) in vitro and in vivo following hypoxia or ischemia, respectively. The reference gene was TBP and the primer used was derived from mouse TATA-box binding protein (Applied Biosystems™ assay primer ID: Mm00446973_m1 Tbp). Amounts of TLR2, TLR4, TNF-α and IL-1β mRNAs in each sample were calculated relative to TBP mRNA, based on the corresponding Cts, as Relative Quantity (RQ) values, and normalized taking as 1 a randomly selected sample of the control group (TBP mRNA). Calculation were performed using the Applied Biosystems Analysis™ software (StepOnePlus V2.2.2). All mRNA scores are presented in arbitrary units.
Next, peptidomimetics of SEQ ID NOs:1 and 2 were tested for their ability to affect the expression of TLR4. The level of TLR4 mRNA was measured by real-time reverse transcriptase polymerase chain reaction (RT-qPCR) method as described in Materials and Methods. […]

Each structure is given as a SMILES string. Residues, ends and D or L forms follow the SMILES beside them.

With `CCCCCCCCNc1nc(=O)n(Cc2ccccc2)cc1C` [PM6, 1-benzyl-5-methyl-4-(octylamino)pyrimidin-2(1H)-one], the “inhibition of IL-1β mRNA production” value in the data set on IL-1β mRNA is listed as about 12 fold. In addition, at TLR4, the “decrease of TLR4 protein expression” value is 7.6 fold. The “blood level of CK” value in the data set with C57BL mice (1 week) and with C57BL mice (24 hours) was “very impressive down regulation” each time. For the same compound, the “blood level of LDH” value in the data set with C57BL mice (1 week) and in the data set with C57BL mice (24 hours) was “very impressive down regulation” throughout. Besides, in the data set on C57BL mice (24 h and 7 days), the “level of GOT” value was “did not changed dramatically”.

Turning to `CC[C@H](C)[C@H](NC(C)=O)C(=O)N[C@H](C(=O)N[C@@H](Cc1ccccc1)C(=O)N[C@@H](C)C(N)=O)C(C)C` [SEQ ID NO:1, (2S,3S)-2-acetamido-N-((S)-1-(((S)-1-(((S)-1-amino-1-oxopropan-2-yl)amino)-1-oxo-3-phenylpropan-2-yl)amino)-3-methyl-1-oxobutan-2-yl)-3-methylpentanamide] (Ac-IVFA-NH2), the “decrease of TLR4 protein expression relative to PM6” value on TLR4 (positive control) was “same extent”. The “TLR2 mRNA expression level” value in the data set on TLR2 mRNA is reported as “relatively unaffected”.

(Values after patent publication US11925643B2, “Toll-like receptor 4 (TLR4) inhibitors and use thereof” (MOR RESEARCH APPLICATIONS LTD., priority 2018, dated 2024).)
